Data: the supplement of paper PMC13380429
± gives the standard deviation of the averaged measurements.

What was measured:
Details in all cases: 72 h
Calu-3 [1] = test: relative viability EC50 (midpoint between 100% and the lowest measured viability); higher = less toxic
Vero E6 [2] = test: as above
Caco-2 [3] = test: as above
U2OS [4] = test: as above
HepG2 [5] = test: as above
Calu-3 [6] = test: drug sensitivity score (DSS) for viability; higher = more toxic; extreme values may be limits of the assay
Vero E6 [7] = test: as above
Caco-2 [8] = test: as above
U2OS [9] = test: as above
HepG2 [10] = test: as above
Calu-3 [11] = test: cell viability relative to DMSO; higher = less toxic
Vero E6 [12] = test: as above
Caco-2 [13] = test: as above
U2OS [14] = test: as above
HepG2 [15] = test: as above

Structure (SMILES)	relative viability EC50 (Calu-3 [1]) [µM]	relative viability EC50 (Vero E6 [2]) [µM]	relative viability EC50 (Caco-2 [3]) [µM]	relative viability EC50 (U2OS [4]) [µM]	relative viability EC50 (HepG2 [5]) [µM]	drug sensitivity score (Calu-3 [6])	drug sensitivity score (Vero E6 [7])	drug sensitivity score (Caco-2 [8])	drug sensitivity score (U2OS [9])	drug sensitivity score (HepG2 [10])	cell viability (Calu-3 [11]; 1 nM) [%]	cell viability (Calu-3 [11]; 10 nM) [%]	cell viability (Calu-3 [11]; 100 nM) [%]	cell viability (Calu-3 [11]; 1000 nM) [%]	cell viability (Calu-3 [11]; 10000 nM) [%]	cell viability (Vero E6 [12]; 1 nM) [%]	cell viability (Vero E6 [12]; 10 nM) [%]	cell viability (Vero E6 [12]; 100 nM) [%]	cell viability (Vero E6 [12]; 1000 nM) [%]	cell viability (Vero E6 [12]; 10000 nM) [%]	cell viability (Caco-2 [13]; 1 nM) [%]	cell viability (Caco-2 [13]; 10 nM) [%]	cell viability (Caco-2 [13]; 100 nM) [%]	cell viability (Caco-2 [13]; 1000 nM) [%]	cell viability (Caco-2 [13]; 10000 nM) [%]	cell viability (U2OS [14]; 1 nM) [%]	cell viability (U2OS [14]; 10 nM) [%]	cell viability (U2OS [14]; 100 nM) [%]	cell viability (U2OS [14]; 1000 nM) [%]	cell viability (U2OS [14]; 10000 nM) [%]	cell viability (HepG2 [15]; 1 nM) [%]	cell viability (HepG2 [15]; 10 nM) [%]	cell viability (HepG2 [15]; 100 nM) [%]	cell viability (HepG2 [15]; 1000 nM) [%]	cell viability (HepG2 [15]; 10000 nM) [%]
COc1cn(-c2ccc(-n3cccn3)cc2F)nc(-c2ccnn2-c2ccccc2)c1=O [TAK-063]	> 10	> 10	> 10	> 10	> 10	0	0	0	0	0	92.1	95.4	98.8	102	109	91.7	97.3	103	90	104	88.1	95.7	91.1	97.4	105	97.3	99.6	97.1	101	102	99.7	95.5	102	105	106
COc1cc2c(NC3CCN(C)CC3)nc(N3CCCN(C)CC3)nc2cc1OCCCN(C)C [UNC0224]	> 10	> 10	> 10	> 10	> 10	0	0	0	0	0	143	103	94.2	97.9	98.9	96.7	102	101	102	98.1	99.3	101	89.9	95.8	103	103	96	104	101	101	90.3	97.4	98.8	101	95.9
Nc1c(-c2cccc(C(F)(F)F)c2)nsc1C(=O)O [amflutizole]	> 10	> 10	> 10	> 10	> 10	0	0	0	0	0	104	94.1	104	97	104	96.8	97.8	97.7	99.1	113	96.2	96.6	99.1	99.1	107	101	99.5	103	96.9	98.1	97.1	100	92.1	108	96.9
O=C(O)CCCCCCNC1c2ccccc2CCc2ccccc21 [amineptine]	> 10	> 10	> 10	> 10	> 10	0	0	0	0	0	101	95.3	111	96.2	102	104	107	99	100	97.2	90.6	99.7	99	103	110	98.8	101	97.9	99	98.9	109	102	93	98.8	105
Nc1nccs1 [aminothiazole]	> 10	> 10	> 10	> 10	> 10	0	0	0	0	0	102	105	100	109	91.3	105	106	98.2	93.4	95.4	102	94.8	97.8	98.9	100	102	98.6	94.2	99.8	97.1	104	100	94.7	97.2	97.4
O=C(O)c1cccc(-c2noc(-c3ccccc3F)n2)c1 [ataluren]	> 10	> 10	> 10	> 10	> 10	0	0	0	0	0	98.5	89.7	104	94.2	99.6	103	102	106	106	95.7	97	101	98.6	111	94.3	96.6	99.4	95.7	101	93.5	101	107	105	97.2	90.9
Oc1ccc2ccccc2c1 [beta-naphthol]	> 10	> 10	> 10	> 10	> 10	0	0	0.6	0	0	114	98.4	104	114	116	94.4	99.5	98.7	104	90.7	102	90.3	99.1	89.8	83.2	102	99.6	104	97.2	104	94	90.7	102	89.1	99.4
C[C@H]1C[C@H]2[C@@H]3CCC4=CC(=O)C=C[C@]4(C)[C@@]3(F)[C@@H](O)C[C@]2(C)[C@@]1(O)C(=O)CO [betamethasone]	> 10	> 10	> 10	> 10	> 10	0	0.1 ± 0.14	0.25 ± 0.35	0	1.3 ± 1.7	106 ± 9.1	107 ± 7.4	95.05 ± 0.49	102 ± 3.6	95 ± 3.5	97 ± 4.5	91.7 ± 5.5	94.5 ± 8.6	95.4 ± 4.1	92.1 ± 6.5	101 ± 2.2	92.85 ± 0.49	84.5 ± 5.2	99.1 ± 5.8	92.9 ± 12	99.6 ± 3.8	101 ± 1.3	94.5 ± 2.9	97.5 ± 2.7	92.4 ± 1.4	101 ± 4.1	97 ± 4.6	99.4 ± 11	90.2 ± 15	89.7 ± 4.4
CC(C)(C)N1CCC(c2ccccc2)(c2ccccc2)CC1 [budipine]	> 10	> 10	> 10	> 10	> 10	0	0	0.3	0	0	96.9	97.3	101	101	96.7	96.1	91.8	91.9	93.9	98.8	98.4	103	86.3	102	82.7	91.9	99	97.3	102	97.6	88.8	95.8	101	102	88.9
CCCCNc1cc(C(=O)O)cc(S(N)(=O)=O)c1Oc1ccccc1 [bumetanide]	> 10	> 10	> 10	> 10	> 10	0	0	0	0	0	95	93.1	104	95.4	95.1	117	108	107	95.6	99	90.2	103	103	94.1	96.7	97.9	101	98.9	99.1	102	103	98.5	104	107	94.6
CC12CCC(CC1=O)C2(C)C (stereo not drawn) [camphor-(+)]	> 10	> 10	> 10	> 10	> 10	0	0	0	0	0.15 ± 0.21	86	101	102	112	112	96.9 ± 3.2	98.5 ± 2.7	99.2 ± 4.2	96.7 ± 2	101 ± 9.5	95.2 ± 8.1	90.5 ± 0.99	99.2 ± 3.3	93.8 ± 7.3	99.3 ± 6.2	101 ± 2.5	101 ± 6	99.8 ± 0.42	101 ± 5.5	99.8 ± 3.1	95.8 ± 3.6	104 ± 13	96.1 ± 0.42	98.2 ± 1.8	96.6 ± 14
CCN(CC)CCN[C@@H](C(=O)OCCC(C)C)c1ccccc1 [camylofine-chlorhydrate]	> 10	> 10	> 10	> 10	> 10	0	0	1	0	0	96.3	107	102	97.5	99	94.9	93	95.7	91.1	103	84.4	82	85.5	100	85.6	90.7	99.7	94.8	101	108	106	105	98.6	97.3	108
C[C@@H]1CC[C@H]2C(C)(C)[C@H]3C[C@@]12CC[C@@]3(C)O [cedrol]	> 10	> 10	> 10	> 10	> 10	0	0	0	0	0	96.9	97.1	103	87.7	102	94.5	96.5	91.2	94.7	103	97.5	88.4	100	99.4	104	99.9	94.5	101	97.1	101	97.7	102	98	104	118
CCCCCCCCCCCCCCCCNc1ccc(C(=O)O)cc1 [cetaben]	> 10	> 10	> 10	> 10	> 10	0	0	0	0	0	99.5	101	98.5	90.8	95.4	99.8	99.2	94.4	98.8	101	99.2	97.4	109	93.7	103	99.5	97.8	102	99.2	98.5	101	111	97.3	105	99.5
CC1OC2(CS1)CN1CCC2CC1 (stereo not given) [cevimeline]	> 10	> 10	> 10	> 10	> 10	0	0	0	0	0	106	92.9	102	97.1	103	96.7	91.5	92.7	89.7	102	98.3	88.1	91.3	91	96.3	99.1	98.9	99.7	106	106	107	97	94.9	89.2	111
